The text below walks through data of patent publication US10792335B2, “Rapid-acting insulin composition comprising a substituted citrate” (ADOCIA, priority 2015, dated 2020).

Series [1] deals with T1, hexameric R6 form of insulin lispro (Homo sapiens, UniProt P01308, K53P/P52K).
T1 construct: The insulin lispro has a strong signal at 240 nm characteristic of the hexameric R6 form; purchased Lilly
The experiment in a line: Association state of the insulin lispro evaluated by circular dichroism (CD signal at 240 nm). The series is classed as physicochemical. The note with it: insulin lispro 100 IU/mL (Humalog), pH 7.4; additive alone (EDTA 300 μM; substituted citrate 7.3 or 14.6 mg/mL). The protocol:
Circular dichroism makes it possible to study the secondary and quaternary structure of the insulin. The monomers of insulin self-organize to form dimers and hexamers. […] There are two hexameric forms, R6 form and T6 form. […] The loss of the signal at 240 nm is connected with a destabilization of the hexamer and the conversion from R6 to T6.
For a final volume of 100 mL of formulation, with a concentration of substituted citrate at 7.3 mg/mL and a concentration of 9.3 mM of citrate, the different reagents are added in the quantities specified below and in the following order:
For a final volume of 100 mL of formulation, with a concentration of substituted citrate at 7.3 mg/mL, the different reagents are added in the quantities specified below and in the following order:
For a final volume of 100 mL of formulation, with a concentration of 300 μM of EDTA, the different reagents are added in the quantities specified below and in the following order:
(§1) Two measurement series were carried out.
Circular dichroism makes it possible to study the secondary and quaternary structures of insulin. The monomers of insulin self-organize to form dimers and hexamers. […]
For a final volume of 100 mL of formulation, with a concentration of substituted citrate at 7.3 mg/mL or 14.6 mg/mL, the different reagents are added in the quantities specified below and in the following order: […]

The target of series [2] is T2, hexameric R6 form of human insulin (Homo sapiens, UniProt P01308).
T2 construct: The human insulin has a strong signal at 240 nm, characteristic of the hexameric R6 form
The experiment in a line: Association state of human insulin evaluated by circular dichroism (CD signal at 240 nm). Type of series: physicochemical. The conditions noted are these: human insulin 100 IU/mL (Humulin R), pH 7.4; additive alone (EDTA 300 μM or 6 mM; substituted citrate 7.3 or 14.6 mg/mL). The method, then: Circular dichroism makes it possible to study the secondary and quaternary structures of insulin. The monomers of insulin self-organize to form dimers and hexamers. […] There are two hexameric forms, the R6 form and the T6 form. […] The loss of the signal at 240 nm is connected with a destabilization of the hexamer and the conversion from R6 to T6.
For a final volume of 100 mL of formulation, with a concentration of substituted citrate at 7.3 mg/mL and a concentration of 9.3 mM of citrate, the different reagents are added in quantities specified below and in the following order:
For a final volume of 100 mL of formulation, with a concentration of substituted citrate at 7.3 mg/mL or 14.6 mg/mL, the different reagents are added in the quantities specified below and in the following order:
For a final volume of 100 mL of formulation, with a concentration of 300 μM or 6 mM of EDTA, the different reagents are added in the quantities specified below and in the following order:
as §1
On the technique in general: Circular dichroism is the unequal absorption of left and right circularly polarised light.

For series [3] the following is noted: injected by the subcutaneous route, diabetic patients; cited from earlier work.
Series [4] in a line: Solubility in a buffer solution at 50 mM Tris/HCl pH 7.4 (visual inspection). Type of series: physicochemical. The method, then:
The solubility of the substituted citrates (A1, A2, A3 and A4) was measured in a buffer solution.
In a buffer solution at 50 mM of Tris/HCl, pH 7.4 (1 mL), the substituted citrate in powder form (20 mg) is introduced. The tubes are stirred (rolling shaker) for 30 minutes at ambient temperature, then inspected visually. The pH is adjusted to 7.4±0.4.
The solubility of the compounds of the prior art (CE1 and CE2) was measured.
4 mL of a buffer solution at 50 mM of Tris/HCl at pH 7.4 were introduced into a glass tube, at ambient temperature. The compounds in powder form were added successively in the amount of 8 mg per addition. After each addition of compound, the tubes were stirred (rolling shaker) for 30 minutes at ambient temperature, then inspected visually. The pH is adjusted to 7.4±0.4.
The concentrations at which insoluble matter was observed are defined as being greater than the limit of solubility of the compound.

The nature of series [5]: Solubility in the presence of insulin lispro 100 IU/mL (commercial Humalog, visual inspection). The note with it: commercial insulin lispro solution (Humalog) 100 IU/mL, aqueous with cosolvent or surfactant or cyclodextrin, thermodynamic from solid, pH 7.4±0.4, ambient temperature, 30 minutes stirring, read-out: Solubility (limit of solubility). Type of series: physicochemical. The protocol:
The solubility of the substituted citrates (A1, A2, A3 and A4) is measured in the presence of insulin lispro 100 U/mL. In a commercial solution of insulin lispro (Humalog®) (1 mL), the substituted citrate in powder form (20 mg) is introduced. The tube was stirred (rolling shaker) for 30 minutes at ambient temperature, then inspected visually. The pH is adjusted to 7.4±0.4.
The solubility of the compounds of the prior art was also measured in the presence of insulin lispro 100 U/mL. 1 mL of a commercial solution of Humalog was introduced into a glass tube, at ambient temperature. The compounds in powder form were added successively in the amount of 2 mg per addition. After each addition of compound, the tubes were stirred (rolling shaker) for 30 minutes at ambient temperature, then inspected visually. The pH is adjusted to 7.4±0.4.
The concentrations at which insoluble matter was observed are defined as being greater than the limit of solubility of the compound in the presence of insulin lispro 100 IU/mL.

The mark [6] stands for this setting: 50 mM Tris/HCl buffer, aqueous buffer, thermodynamic from solid, buffer solution 50 mM Tris/HCl, pH 7.4, ambient temperature, 30 minutes stirring, read-out: Solubility (limit of solubility).
[7] abbreviates: pH 7.4, thermodynamic from solid, medium not named at this place, sums up Tables 3 and 4 (Tris/HCl buffer and Humalog), read-out: limit of solubility (summary statement).

Peptide text beside a SMILES is read from it. * marks the point of attachment. Cbz = O=C(OCc1ccccc1)*

T2 sequence (P01308 25-54 limits assumed): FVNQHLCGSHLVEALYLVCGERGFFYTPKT
T2 sequence (P01308 90-110 limits assumed): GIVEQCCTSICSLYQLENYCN
T1 sequence (P01308 25-54 P52K/K53P limits assumed): as the sequence (P01308 25-54 limits assumed) above, with P28K, K29P counted along it

Consider `O=C(O)CN(CCN(CC(=O)O)CC(=O)O)CC(=O)O` [EDTA], for which the “impact on the CD signal at 240 nm / R6 form of the insulin lispro hexamer” value in series [1] is given as “completely destructures the R6 form”. Further, in series [2], the “impact on the CD signal at 240 nm / R6 form of the human insulin hexamer” value is “completely destructures the R6 form”.
For “human insulin: human insulin produced by genetic engineering, injected subcutaneously”, in series [3], the “time after which a hypoglycemic effect is produced” value was 60 min.
In general, solubility refers to the concentration that dissolves in the medium under given conditions. With `O=C(N[C@@H](Cc1ccccc1)C(=O)N[C@@H](Cc1ccccc1)C(=O)O)OCc1ccccc1` [CE1, N-Carbobenzoxy-L- phenylalanyl-L- phenylalanine] (Cbz-Phe-Phe-OH), the solubility at 30 min in series [4] (setting [6]), in series [4] (setting [7]) and in series [5] was < 2000 µg/mL throughout.
In the case of `O=C(N[C@@H](Cc1ccccc1)C(=O)O)c1ccccc1` [CE2, Benzoyl-L- phenylalanine], the solubility at 30 min in series [4] (setting [6]), in series [4] (setting [7]) and in series [5] was < 2000 µg/mL each time.
